Reference: PMC4193996 (Journal of Experimental & Clinical Cancer Research : CR, 2014)

Key:
[1] = tested on: h-Tel quadruplex DNA, 5'-biotin-d[AG3(T2AG3)3] (DNA, G4) AGGGTTAGGGTTAGGGTTAGGG; experiment: SPR
[2] = tested on: hairpin duplex, 5'-biotin-CGA3T3C(CT)2GA3T3CG (DNA, hairpin) CGAAATTTCCTCTGAAATTTCG; experiment: SPR
[3] = target: T1, human recombinant M2 muscarinic receptor (Homo sapiens, UniProt P08172); experiment: M2 muscarinic receptor inhibition assay; type: binding; conditions: read-out: Muscarinic (M2) % inh @1 μM
T1 sequence (P08172 1-466): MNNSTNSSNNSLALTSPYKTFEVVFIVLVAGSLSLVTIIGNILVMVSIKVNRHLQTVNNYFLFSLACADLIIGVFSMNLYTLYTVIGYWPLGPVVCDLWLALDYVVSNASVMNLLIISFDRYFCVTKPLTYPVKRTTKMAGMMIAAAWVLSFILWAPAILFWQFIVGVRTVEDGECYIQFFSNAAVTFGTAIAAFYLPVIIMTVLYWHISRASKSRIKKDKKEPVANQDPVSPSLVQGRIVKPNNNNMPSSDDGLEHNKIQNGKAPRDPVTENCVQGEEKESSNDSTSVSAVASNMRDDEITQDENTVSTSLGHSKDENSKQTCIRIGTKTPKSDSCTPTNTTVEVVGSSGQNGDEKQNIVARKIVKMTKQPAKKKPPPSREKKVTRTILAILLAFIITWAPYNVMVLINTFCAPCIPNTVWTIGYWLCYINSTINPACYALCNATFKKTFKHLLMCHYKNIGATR
Protocol: (§1) hEGR study and the M2 and the β2 receptor inhibition assay were performed as previously reported.
(§2) The new G-quadruplex ligands were designed in an attempt to obtain molecules with improved toxicological and on-target profiles, but maintaining the same favorable chemical and pharmacological features of the lead compound 1. With the aim of selecting the best variants, a step by step comparative analysis of their off- and on-target properties was performed. Initially the new molecules were tested for their ability to interact with and inhibit the human recombinant β2 adrenergic and M2 muscarinic receptors, and to reduce the hERG tail current in a patch clamp assay. […] Therefore, we might expect that the new ligands would impair cardiac functionality to a lesser extent than the lead molecule does.

[4] = target: human recombinant β2 adrenergic receptor (Homo sapiens, UniProt P07550); experiment: β2 adrenergic receptor inhibition assay; type: binding; conditions: read-out: β2 adrenergic % inh @1 μM
Sequence of human recombinant β2 adrenergic receptor (P07550 whole entry): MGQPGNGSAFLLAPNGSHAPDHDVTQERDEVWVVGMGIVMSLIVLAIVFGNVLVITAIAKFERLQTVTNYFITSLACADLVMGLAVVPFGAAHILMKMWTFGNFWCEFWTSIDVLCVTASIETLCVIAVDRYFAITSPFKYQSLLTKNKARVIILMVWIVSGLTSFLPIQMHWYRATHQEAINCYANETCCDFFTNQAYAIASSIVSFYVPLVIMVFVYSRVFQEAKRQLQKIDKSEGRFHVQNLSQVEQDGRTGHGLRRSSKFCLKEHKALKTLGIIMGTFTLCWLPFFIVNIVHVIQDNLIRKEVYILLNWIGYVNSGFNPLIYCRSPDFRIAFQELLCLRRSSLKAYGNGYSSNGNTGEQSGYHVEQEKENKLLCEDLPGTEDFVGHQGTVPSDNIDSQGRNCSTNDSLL
Protocol: as §1, §2

[5] = tested on: h-Tel quadruplex DNA sequence 5'-d[AGGG(TTAGGG)3]-3'; experiment: SPR binding to quadruplex DNA; set-up: species or system human; conditions: for Quadruplex/duplex ratio: quadruplex vs duplex affinity
Protocol: (§3) Oligonucleotides 5’-biotin-d [AG3 (T2AG3)3] quadruplex and 5’-biotin-CGA3T3C(CT)2GA3T3CG were purchased from Midland Certified Reagent Company (Midland, TX). Purification of DNA, preparation of solutions, collection of data, and analysis of results were conducted according to methods adopted in an earlier study.
(§4) This technique takes advantage of the refractive index change elicits by the binding of the drug with the h-Tel quadruplex DNA sequence 5’-d[AGGG(TTAGGG)3]-3’ or an alternating hairpin duplex sequence immobilized on a sensor chip surface.

[6] = tested on: alternating hairpin duplex sequence 5'-biotin-CGA3T3C(CT)2GA3T3CG; experiment: SPR binding to duplex DNA
Protocol: as §3, §4

[7] = tested on: human colon cancer cell line HT-29; experiment: MTT proliferation assay, HT-29; type: cell-based; conditions: 96 hours
Protocol: (§5) Normal WI-38 diploid human lung fibroblasts and the human colorectal adenocarcinoma HT29 cells were obtained from American Type Culture Collection (Manassas, VA, USA). BJ fibroblasts expressing hTERT and SV40 early region (BJ-EHLT) were obtained as previously reported. Cells were grown in Dulbecco Modified Eagle Medium (D-MEM, Invitrogen Carlsbad, CA, USA) supplemented with 10% fetal calf serum, 2 mM L-glutamin and antibiotics.
(§6) MTT (3-(4,5-Dimethylthiazol-2-yl)-2,5-diphenyltetrazolium Bromide) assay was performed in treated and untreated cells for 96 hours. Cells were incubated with MTT solution (Sigma-Aldrich), and the purple formazan crystals were dissolved in isopropanol. Optical densities (OD) at 540 nm was determined on microplate reader.
(§7) Firstly, we investigated if they were able to efficiently promote growth inhibition of tumor cells without affecting the survival of normal cells in vitro. In Table 1 we report for each compound the concentration causing 50% of growth inhibition (GI50) calculated by performing a proliferation assay in the human colon cancer cell line HT-29 or in the human ‘normal’ lung WI-38 cells. […] On the basis of results described so far, we decided to exclude from the further analysis ligand 10 for its high value of hERG inhibition (95%) (Table 1).

[8] = tested on: human 'normal' lung WI-38 cells; experiment: MTT proliferation assay, WI-38; type: cell-based; conditions: for Ratio PMX WI38/HT29: GI50 WI-38 / GI50 HT-29; for GI50: Homo sapiens, WI-38, MTT, 96 hours
Protocol: as §5, §6, §7

[9] = tested on: BJ-EHLT fibroblasts; experiment: γ-H2AX/PCNA co-immunostaining (replication-dependent DNA damage); type: cell-based, human; conditions: 24 hrs
Protocol: (§8) Cells were fixed in 2% formaldehyde and permeabilized in 0.25% Triton X100 in PBS for 5 min at room temperature. For immunolabeling, cells were incubated with primary antibody, then washed in PBS and incubated with the secondary antibodies. The following primary antibodies were used: pAb and mAb anti-TRF1(Abcam Ltd.; Cambridge UK); mAb (Upstate, Lake Placid, NY) and pAb anti-γH2AX (Abcam); mAb anti-PCNA (Sigma Chemicals, Milano, Italy). The following secondary antibody were used: TRITC conjugated Goat anti Rabbit, FITC conjugated Goat anti Mouse (Jackson ImmunoResearch Europe Ltd., Suffolk, UK). Fluorescence signals were recorded by using a Leica DMIRE2 microscope equipped with a Leica DFC 350FX camera and elaborated by a Leica FW4000 deconvolution software (Leica, Solms, Germany). This system permits to focus single planes inside the cell generating 3D highresolution images. For quantitative analysis of γH2AX positivity, 200 cells on triplicate slices were scored. For TIFs analysis, in each nucleus a single plane was analyzed and at least 50 nuclei per sample were scored.
Figure 2 DNA damage activation at telomeres. BJ-EHLT fibroblasts were treated for 24 hrs with compound 1 and the indicated ligands at the doses 0.1 (light-grey bars) and 0.5 μM (dark-grey bars). […] Cells with four or more γ-H2AX/TRF1 foci were scored as TIF positive. […]

[10] = target: hERG (Homo sapiens, UniProt Q12809); experiment: hERG tail current inhibition in a patch clamp assay; type: cell-based; conditions: read-out: hERG % inh @10 μM
Sequence of hERG (Q12809 whole entry): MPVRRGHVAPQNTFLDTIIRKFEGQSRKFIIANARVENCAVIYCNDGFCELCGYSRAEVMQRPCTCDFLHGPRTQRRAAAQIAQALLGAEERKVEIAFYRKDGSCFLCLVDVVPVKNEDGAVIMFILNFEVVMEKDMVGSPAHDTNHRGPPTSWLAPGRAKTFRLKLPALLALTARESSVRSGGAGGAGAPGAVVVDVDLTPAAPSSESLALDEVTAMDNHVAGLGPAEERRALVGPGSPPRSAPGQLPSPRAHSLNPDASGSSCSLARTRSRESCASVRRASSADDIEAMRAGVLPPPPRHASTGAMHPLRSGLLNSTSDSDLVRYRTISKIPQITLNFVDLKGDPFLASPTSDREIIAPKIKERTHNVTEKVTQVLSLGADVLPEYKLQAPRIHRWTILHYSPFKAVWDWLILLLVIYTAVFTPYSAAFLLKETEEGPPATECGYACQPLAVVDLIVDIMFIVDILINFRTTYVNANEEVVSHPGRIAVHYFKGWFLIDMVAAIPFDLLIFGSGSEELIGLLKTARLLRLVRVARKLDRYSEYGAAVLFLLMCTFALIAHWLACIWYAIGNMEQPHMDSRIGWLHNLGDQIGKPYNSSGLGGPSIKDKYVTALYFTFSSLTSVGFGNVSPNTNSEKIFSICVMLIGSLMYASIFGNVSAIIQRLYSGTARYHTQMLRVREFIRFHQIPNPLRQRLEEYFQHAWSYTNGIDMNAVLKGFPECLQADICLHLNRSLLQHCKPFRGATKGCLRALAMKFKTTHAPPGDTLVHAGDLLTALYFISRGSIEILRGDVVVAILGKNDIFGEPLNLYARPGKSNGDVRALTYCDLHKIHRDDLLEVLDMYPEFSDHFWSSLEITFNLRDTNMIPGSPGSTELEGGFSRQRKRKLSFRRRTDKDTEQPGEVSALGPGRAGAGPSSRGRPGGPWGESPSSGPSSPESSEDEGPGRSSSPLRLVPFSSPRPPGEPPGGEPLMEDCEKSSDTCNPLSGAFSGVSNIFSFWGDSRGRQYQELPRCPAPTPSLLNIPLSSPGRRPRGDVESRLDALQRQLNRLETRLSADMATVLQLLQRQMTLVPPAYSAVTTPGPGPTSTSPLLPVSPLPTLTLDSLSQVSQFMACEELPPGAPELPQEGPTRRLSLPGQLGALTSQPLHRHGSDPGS
Protocol: as §1, §2

[11] = tested on: BJ-EHLT fibroblasts; experiment: γ-H2AX/TRF1 colocalization (TIFs, telomere uncapping); type: cell-based, human; conditions: for telomere dysfunction (TIF formation), in words / mean TIFs per nucleus: 24 hrs; for telomere dysfunction (TIF formation), in words: 0.1 and 0.5 μM
Protocol: as §8
Unfortunately, we were not able to test compounds 4, 5 and the 0,5 μM dose of 3 as they were fluorescent in both red and green channels. […] To ascertain whether γ-H2AX was phosphorylated in response to dysfunctional telomeres, double immunofluorescence experiments were processed by confocal microscopy. We observed that some of the γ-H2AX foci induced by G4-ligands colocalized with TRF1, a good marker for interphase telomeres, forming the so-called telomere dysfunction-induced foci (TIFs) (Figure 2B).
Figure 2 DNA damage activation at telomeres. BJ-EHLT fibroblasts were treated for 24 hrs with compound 1 and the indicated ligands at the doses 0.1 (light-grey bars) and 0.5 μM (dark-grey bars). Cells were processed for immunofluorescence (IF) using antibodies against γ-H2AX and TRF1 to mark DNA damage and telomeres respectively. Percentages of γ-H2AX- (A) and TIF-positive (B) treated and untreated cells are reported in the histograms. (C) Mean number of TIFs in the indicated samples. Cells with four or more γ-H2AX/TRF1 foci were scored as TIF positive. Error bars indicate the standard deviation. (D) Representative images of IF of untreated and 1, 3, 6 and 8-treated BJ-EHLT cells. Enlarged views of TIFs are reported on the right of the merged images. The images were acquired with a Leica Deconvolution microscope (magnification 100x). (E) Cells treated as in (A) were processed for IF of γ-H2AX and PCNA to mark replicating cells. Percentage of γ-H2AX+/PCNA- or γ-H2AX+/PCNA + nuclei in the indicated samples are reported in the histograms.

Compound | K [1] [M⁻¹] | K [2] [M⁻¹] | inhibition at 1 µM [3] [%] | inhibition at 1 µM [4] [%] | Quadruplex DNA affinity K [5] | Duplex DNA affinity K [6] | GI50 [7] [µM] | Ratio PMX WI38/HT29 [8] | GI50 [8] [µM] | γ-H2AX foci formation relative to PCNA status [9] | inhibition at 10 µM [10] [%] | Quadruplex/duplex ratio [5] | telomere dysfunction (TIF formation), in words [11] | mean TIFs per nucleus [11] | percentage of cells with more than four γ-H2AX/TRF1 colocalizations (TIF-positive) ([11]; 24 hrs, 0,1 μM) | percentage of cells with more than four γ-H2AX/TRF1 colocalizations (TIF-positive) ([11]; 24 hrs, 0,5 μM) [%]
CN1c2ccccc2-c2c3c1cccc3c1ccc(NC(=O)CCS(C)=O)cc1[n+]2C (stereo not drawn) | 2.3e+07 | < 100000 |  |  |  |  |  |  |  |  |  |  |  |  |  | 
Cc1cc2c3c([n+](C)c4ccc(F)cc4c3c1)-c1cc(F)ccc1N2C [Compound 1, 3,11-difluoro-6,8,13-trimethyl-8H-quino [4,3,2-kl] acridinium methosulfate, reference compound] | 9e+06 | 600000 | 98 | 100 | 9e+06 M⁻¹ | 600000 M⁻¹ | 0.62 | 11,6 | 7.2 | almost exclusively restricted to PCNA-positive |  |  |  |  |  | 
COC(=O)c1ccc2c(c1)c1cccc3c1c([n+]2C)-c1ccccc1N3C [Compound 2] | 4.2e+06 | 200000 | 98 | 11 | 4.2e+06 M⁻¹ | 0,2 x10^6 M^−1 | 0.1 | 31,1 | 3.11 |  | 41 | 21 | did not cause significant telomere dysfunction |  |  | 
CN1c2ccccc2-c2c3c1cccc3c1ccc(NC(=O)C3CC3)cc1[n+]2C [Compound 3] | 2.2e+07 | 100000 | 98 | 13 | 22,0 x10^6 M^−1 | 0,1 x10^6 M^−1 | 0.7 | 18,5 | 13 |  | 74 | 244,4 |  | about seven | about 18% | 
CN1c2ccccc2-c2c3c1cccc3c1ccc(CN)cc1[n+]2C [Compound 4] | 7.4e+06 | 1.1e+06 | 65 | 1 | 7.4e+06 M⁻¹ | 1,1 x10^6 M^−1 | 1.63 | 10,6 | 17.3 |  | 15 | 6,7 |  |  |  | 
CN1c2ccccc2-c2c3c1cccc3c1ccc(NC(=O)CC[S+](C)[O-])cc1[n+]2C (stereo not drawn) [Compound 5] |  |  | 93 | 10 | 2.3e+07 M⁻¹ | <0,1 x10^6 M^−1 | 1.83 |  | > 30 |  | 16 | >230 |  |  |  | 
CN1c2ccccc2-c2c3c1cccc3c1ccc(NC(=O)CO)cc1[n+]2C [Compound 6] | 1.47e+07 | 700000 | 77 | 8 | 14,7 x10^6 M^−1 | 0,7 x10^6 M^−1 | 0.26 | 85,7 | 22.3 |  | 35 | 21 |  | about seven |  | ~40
CN(C)CC#Cc1ccc2c3cccc4c3c([n+](C)c2c1)-c1ccccc1N4C [Compound 7] | 2.93e+07 | 900000 | 92 | 0 | 29,3 x10^6 M^−1 | 0,9 x10^6 M^−1 | 0.28 | 33,4 | 9.36 |  | 37 | 32,6 | did not cause significant telomere dysfunction |  |  | 
C[n+]1c2c3c(cccc3c3ccccc31)Oc1ccccc1-2 [Compound 9] | 1.5e+06 | < 100000 | 24 |  | 1,5 x10^6 M^−1 | <0,1 x10^6 M^−1 | 0.21 | 24,3 | 5.11 |  | 86 | >15 | did not cause significant telomere dysfunction |  |  | 
C[n+]1c2c3c(cccc3c3ccccc31)Sc1ccccc1-2 [Compound 10] | 1e+06 | < 100000 | 49 |  | 1,0 x10^6 M^−1 | <0,1 x10^6 M^−1 | 0.13 | 47,5 | 6.17 |  | 95 | >10 |  |  |  | 
